“And” between values parts separate entries of the source, which are not always exact repeats. Identical values can stand only once. ± gives the uncertainty stated by the source.
Experiment: xn = mol fraction of the nth substance listed

CC(=O)O + Cc1ccc(C)cc1
viscosity, 101 kPa
Settings	x2 = 0.0592	x2 = 0.124	x2 = 0.1952	x2 = 0.2738	x2 = 0.3615	x2 = 0.4596	x2 = 0.569	x2 = 0.6934	x2 = 0.8354
303.15 K	0.8817 ± 0.024 mPa·s and 0.882 ± 0.009 mPa·s	0.7951 ± 0.022 mPa·s and 0.795 ± 0.008 mPa·s	0.7314 ± 0.02 mPa·s and 0.731 ± 0.008 mPa·s	0.6755 ± 0.019 mPa·s and 0.676 ± 0.007 mPa·s	0.6446 ± 0.018 mPa·s and 0.645 ± 0.007 mPa·s	0.6109 ± 0.017 mPa·s and 0.611 ± 0.007 mPa·s	0.5923 ± 0.017 mPa·s and 0.592 ± 0.007 mPa·s	0.58 ± 0.017 mPa·s and 0.58 ± 0.007 mPa·s	0.571 ± 0.016 mPa·s and 0.571 ± 0.007 mPa·s
308.15 K	0.8236 ± 0.023 mPa·s	0.7455 ± 0.021 mPa·s	0.685 ± 0.019 mPa·s	0.6373 ± 0.018 mPa·s	0.6095 ± 0.017 mPa·s	0.5737 ± 0.016 mPa·s	0.5606 ± 0.016 mPa·s	0.5476 ± 0.016 mPa·s	0.5393 ± 0.016 mPa·s
313.15 K	0.7876 ± 0.022 mPa·s	0.7172 ± 0.02 mPa·s	0.6617 ± 0.019 mPa·s	0.6171 ± 0.017 mPa·s	0.5816 ± 0.017 mPa·s	0.5522 ± 0.016 mPa·s	–	0.5233 ± 0.015 mPa·s	–
318.15 K	0.7347 ± 0.02 mPa·s	0.6716 ± 0.019 mPa·s	0.6249 ± 0.018 mPa·s	0.5798 ± 0.017 mPa·s	0.5483 ± 0.016 mPa·s	0.5222 ± 0.015 mPa·s	0.5018 ± 0.015 mPa·s	0.4927 ± 0.014 mPa·s	0.4862 ± 0.014 mPa·s
323.15 K	0.6874 ± 0.019 mPa·s and 0.687 ± 0.008 mPa·s	0.6339 ± 0.018 mPa·s and 0.634 ± 0.007 mPa·s	0.5878 ± 0.017 mPa·s and 0.588 ± 0.007 mPa·s	0.5468 ± 0.016 mPa·s and 0.547 ± 0.007 mPa·s	0.5158 ± 0.015 mPa·s and 0.516 ± 0.007 mPa·s	0.4913 ± 0.014 mPa·s and 0.491 ± 0.006 mPa·s	0.4775 ± 0.014 mPa·s and 0.478 ± 0.006 mPa·s	0.4674 ± 0.014 mPa·s and 0.467 ± 0.006 mPa·s	0.4608 ± 0.014 mPa·s and 0.461 ± 0.006 mPa·s

CC(=O)O + Cc1cccc(C)c1
viscosity [mPa·s], 101.3 kPa
Settings	x2 = 0.1087	x2 = 0.218	x2 = 0.2726	x2 = 0.3467	x2 = 0.4518	x2 = 0.5763	x2 = 0.6567	x2 = 0.7671	x2 = 0.8589
298.15 K	0.952 ± 0.025	0.809 ± 0.022	0.753 ± 0.02	0.7 ± 0.019	0.648 ± 0.018	0.618 ± 0.017	0.603 ± 0.017	0.591 ± 0.016	0.579 ± 0.016
303.15 K	0.861 ± 0.023	0.746 ± 0.02	0.707 ± 0.019	0.655 ± 0.018	0.615 ± 0.017	0.582 ± 0.016	0.568 ± 0.016	0.554 ± 0.015	0.545 ± 0.015
313.15 K	0.777 ± 0.021	0.665 ± 0.018	0.624 ± 0.017	0.58 ± 0.016	0.543 ± 0.015	0.519 ± 0.015	0.507 ± 0.014	0.501 ± 0.014	0.494 ± 0.014
323.15 K	0.687 ± 0.019	0.59 ± 0.016	0.554 ± 0.015	0.518 ± 0.015	0.483 ± 0.014	0.466 ± 0.013	0.459 ± 0.013	0.451 ± 0.013	0.444 ± 0.013

ClCCl + Cc1cccc(C)c1
101 kPa
Settings	viscosity [mPa·s]
293.15 K, x1 = 0.2258	0.583 ± 0.015
293.15 K, x1 = 0.4249	0.553 ± 0.014
293.15 K, x1 = 0.4896	0.541 ± 0.014
293.15 K, x1 = 0.5542	0.528 ± 0.014
293.15 K, x1 = 0.6288	0.512 ± 0.013
293.15 K, x1 = 0.769	0.482 ± 0.013
293.15 K, x1 = 0.8151	0.472 ± 0.012
298.15 K, x1 = 0.2398	0.55 ± 0.014
298.15 K, x1 = 0.4075	0.527 ± 0.014
298.15 K, x1 = 0.4997	0.511 ± 0.013
298.15 K, x1 = 0.5622	0.501 ± 0.013
298.15 K, x1 = 0.6288	0.485 ± 0.013
298.15 K, x1 = 0.6891	0.474 ± 0.012
298.15 K, x1 = 0.7634	0.461 ± 0.012
298.15 K, x1 = 0.8183	0.451 ± 0.012
298.15 K, x1 = 0.8586	0.446 ± 0.012
303.15 K, x1 = 0.3947	0.501 ± 0.013
303.15 K, x1 = 0.4925	0.483 ± 0.013
303.15 K, x1 = 0.5836	0.466 ± 0.012
303.15 K, x1 = 0.6551	0.453 ± 0.012
303.15 K, x1 = 0.7164	0.441 ± 0.012
303.15 K, x1 = 0.7934	0.428 ± 0.011
303.15 K, x1 = 0.8418	0.421 ± 0.011
303.15 K, x1 = 0.8669	0.417 ± 0.011

CC(=O)O + Cc1ccccc1
viscosity [mPa·s]
Settings	293.15 K	303.15 K	313.15 K	323.15 K
101 kPa, x2 = 0.0642	–	–	0.9448 ± 0.025	0.8122 ± 0.022
101 kPa, x2 = 0.2052	–	–	0.6513 ± 0.017	0.4846 ± 0.013
101 kPa, x2 = 0.7929	–	–	0.4859 ± 0.013	0.4171 ± 0.011
101.33 kPa, x2 = 0.022	1.143 ± 0.056	0.9772 ± 0.049	0.8709 ± 0.044	0.7709 ± 0.04
101.33 kPa, x2 = 0.0569	1.06 ± 0.052	0.907 ± 0.046	0.8111 ± 0.041	0.7288 ± 0.038
101.33 kPa, x2 = 0.1191	0.9245 ± 0.046	0.8216 ± 0.042	0.731 ± 0.038	0.641 ± 0.034
101.33 kPa, x2 = 0.1879	0.8359 ± 0.043	0.741 ± 0.038	0.6554 ± 0.035	0.59 ± 0.032
101.33 kPa, x2 = 0.2626	0.7694 ± 0.04	0.6753 ± 0.036	0.603 ± 0.032	0.5446 ± 0.03
101.33 kPa, x2 = 0.352	0.7293 ± 0.038	0.6216 ± 0.033	0.561 ± 0.031	0.5072 ± 0.028
101.33 kPa, x2 = 0.4459	0.6757 ± 0.036	0.5903 ± 0.032	0.522 ± 0.029	0.474 ± 0.027
101.33 kPa, x2 = 0.4893	0.6542 ± 0.035	0.5766 ± 0.031	0.5131 ± 0.029	0.4647 ± 0.026
101.33 kPa, x2 = 0.5579	0.6349 ± 0.034	0.5578 ± 0.03	0.5022 ± 0.028	0.4559 ± 0.026
101.33 kPa, x2 = 0.6302	0.6233 ± 0.033	0.5464 ± 0.03	0.491 ± 0.028	0.4486 ± 0.026
101.33 kPa, x2 = 0.6817	0.6144 ± 0.033	0.5382 ± 0.03	0.4828 ± 0.027	0.4384 ± 0.025
101.33 kPa, x2 = 0.7391	0.6055 ± 0.032	0.5304 ± 0.029	0.4757 ± 0.027	0.4319 ± 0.025
101.33 kPa, x2 = 0.861	0.5941 ± 0.032	0.5201 ± 0.029	0.4619 ± 0.026	0.42 ± 0.025
101.33 kPa, x2 = 0.9262	0.588 ± 0.032	0.513 ± 0.029	0.4611 ± 0.026	0.4194 ± 0.025
101.33 kPa, x2 = 0.9645	0.5842 ± 0.032	0.5088 ± 0.028	0.4574 ± 0.026	0.4163 ± 0.024

ClCCl + Cc1ccccc1
101 kPa
Settings	viscosity [mPa·s]
293.15 K, x1 = 0.1635	0.564 ± 0.015
293.15 K, x1 = 0.3002	0.543 ± 0.014
293.15 K, x1 = 0.4025	0.528 ± 0.014
293.15 K, x1 = 0.4771	0.517 ± 0.013
293.15 K, x1 = 0.5025	0.511 ± 0.013
293.15 K, x1 = 0.5801	0.498 ± 0.013
293.15 K, x1 = 0.5919	0.496 ± 0.013
293.15 K, x1 = 0.675	0.479 ± 0.012
293.15 K, x1 = 0.7431	0.468 ± 0.012
293.15 K, x1 = 0.788	0.465 ± 0.012
298.15 K, x1 = 0.2198	0.525 ± 0.014
298.15 K, x1 = 0.3271	0.51 ± 0.013
298.15 K, x1 = 0.4201	0.497 ± 0.013
298.15 K, x1 = 0.5108	0.48 ± 0.013
298.15 K, x1 = 0.5701	0.472 ± 0.012
298.15 K, x1 = 0.6325	0.462 ± 0.012
298.15 K, x1 = 0.6841	0.455 ± 0.012
298.15 K, x1 = 0.7201	0.45 ± 0.012
298.15 K, x1 = 0.7501	0.447 ± 0.012
303.15 K, x1 = 0.218	0.497 ± 0.013
303.15 K, x1 = 0.3331	0.481 ± 0.013
303.15 K, x1 = 0.4402	0.467 ± 0.012
303.15 K, x1 = 0.5223	0.45 ± 0.012
303.15 K, x1 = 0.6191	0.436 ± 0.011
303.15 K, x1 = 0.694	0.424 ± 0.011
303.15 K, x1 = 0.7651	0.415 ± 0.011
303.15 K, x1 = 0.8053	0.412 ± 0.011

ClCCl + Cc1ccccc1C
101 kPa
Settings	viscosity [mPa·s]
293.15 K, x1 = 0.3503	0.679 ± 0.018
293.15 K, x1 = 0.4307	0.648 ± 0.017
293.15 K, x1 = 0.4992	0.623 ± 0.016
293.15 K, x1 = 0.5657	0.594 ± 0.015
293.15 K, x1 = 0.6558	0.561 ± 0.015
293.15 K, x1 = 0.7632	0.521 ± 0.014
293.15 K, x1 = 0.8524	0.49 ± 0.013
298.15 K, x1 = 0.2305	0.677 ± 0.018
298.15 K, x1 = 0.3611	0.634 ± 0.016
298.15 K, x1 = 0.449	0.602 ± 0.016
298.15 K, x1 = 0.5343	0.572 ± 0.015
298.15 K, x1 = 0.6293	0.542 ± 0.014
298.15 K, x1 = 0.696	0.519 ± 0.014
298.15 K, x1 = 0.7684	0.494 ± 0.013
298.15 K, x1 = 0.826	0.476 ± 0.012
298.15 K, x1 = 0.8658	0.465 ± 0.012
303.15 K, x1 = 0.236	0.644 ± 0.017
303.15 K, x1 = 0.3688	0.602 ± 0.016
303.15 K, x1 = 0.4846	0.561 ± 0.015
303.15 K, x1 = 0.5645	0.531 ± 0.014
303.15 K, x1 = 0.6373	0.507 ± 0.013
303.15 K, x1 = 0.7091	0.483 ± 0.013
303.15 K, x1 = 0.7766	0.462 ± 0.012
303.15 K, x1 = 0.8368	0.444 ± 0.012
303.15 K, x1 = 0.861	0.437 ± 0.011
